SMILES strings stand for the structures. Values joined by “and” are separate entries in the source; they are usually repeats but may differ in a detail not shown here. Identical values can stand only once. Like-named read-outs stand apart in the source and are kept apart here.

The source of these data is patent publication US12043602B2, “Fendiline derivatives” (The Board of Regents of the University of Texas System, priority 2019, dated 2024).

The subject of series [1] is MDCK cells co-expressing GFP-K-RASG12V and mCherry-CAAX. Put plainly: Cytotoxicity in mislocalization screen (death of all cells in well). The following applies: drug caused death of all cells in well at 30 μM.
For a further series, the target named is mGFP-K-RASG12V (Homo sapiens (Human), UniProt P01116, G12V). Put plainly: K-Ras mislocalization assay (confocal microscopy, Manders coefficient). The format is cell-based. On the set-up: key to Emax: Manders coefficient: fraction of mCherry-CAAX co-localizing with GFP-K-Ras. Particulars: for IC50 / Emax: MDCK cells; for IC50: 48 h treatment, read-out: IC50 (μM), KRASG12V mislocalization; for Emax: maximal effect, Manders coefficient, 48 h. As for the experimental part: Madine Darby Canine Kidney epithelial cells (MDCK) stably co-expressing mGFP-tagged full length oncogenic mutant K-Ras (GFP—K-RASG12V) or mGFP-LactC2 (peptide probe for phosphatidylserine) and mCherry-tagged to the amino acids 179-189 of H-RasC181S, C184S (mCherry-CAAX, localizes primarily to endomembranes) were grown in DMEM-high glucose/sodium pyruvate/10% FBS. The medium was supplemented with 1× Penicillin/Streptomycin for fluorescence microscopy assays, to avoid any microbial contamination from the test compounds added. KLE and Hec50 cells were maintained in DMEM-F-12 medium supplemented with 10% FBS. Hec-1A and Hec-1B cells were grown in McCoy's 5a medium supplemented with 10% FBS. ESS-1 cells were grown in RPMI 1640 medium supplemented with 20% FBS. MPanc96 cells were grown in DMEM supplemented with 10% FBS, MiaPaCa-2 cells in DMEM supplemented with 10% FBS and 2.5% horse serum and all other cell lines were grown in RPMI 1640 supplemented with 10% FBS. All cancer cell media were supplemented with ×Penicillin/Streptomycin. All cell lines were grown at 37° C. with 5% CO2.
MDCK co-expressing GFP—K-RASG12V or LactC2 and mCherry-CAAX were grown on coverslips, treated with 0.1% vehicle (DMSO) or various concentrations of drugs for 48 h, and fixed with 4% paraformaldehyde. The coverslips were mounted in mowiol and imaged by confocal microscopy (Nikon A1) using a 60× objective. Using ImageJ software v1.42q, images were converted to 8-bit, and a threshold to a control pixel of each image was set. As a measure of K-Ras/LactC2 mislocalization, the fraction of mCherry-CAAX co-localizing with mGFP-K-RASG12V was calculated using a Manders coefficient plugin downloaded from Wright Cell Image Facility. The fraction of mCherry-CAAX co-localizing with mGFP-RASG12V (Mander's coefficient) is proportional to K-Ras mislocalization.

Turning to `COc1ccc([C@@H](C)N(CC=C(c2ccccc2)c2ccccc2)CCF)cc1` [NY315, (R)-N-(2-fluoroethyl)-N-(1-(4-methoxyphenyl)ethyl)-3,3-diphenylprop-2-en-1-amine], the “Cytotoxic at 30 μM” value in series [1] is on record as “No”. Further, at mGFP-K-RASG12V, the IC50 was 10.1 µM and the Emax was 0.52 ± 0.04. Further, the “fold loss of potency to mislocalize KRAS” value at mGFP-K-RASG12V (in comparison with 7) was 20 fold.

Take `COc1ccc([C@@H](C)N(CC=C(c2ccccc2)c2ccccc2)CCN2CCOCC2)cc1` [NY316, (R)-N-(1-(4-methoxyphenyl)ethyl)-N-(2-morpholinoethyl)-3,3-diphenylprop-2-en-1-amine]: the “Cytotoxic at 30 μM” value in series [1] is “No”. Further, on mGFP-K-RASG12V, the IC50 is 4.4 µM and the Emax was determined as 0.86 ± 0.02.

For the compound `COc1ccc([C@@H](C)N(CC=C(c2ccccc2)c2ccccc2)CCN2CCNC(=O)C2)cc1` [NY325, (R)-4-(2-((3,3-diphenylallyl)(1-(4-methoxyphenyl)ethyl)amino)ethyl) piperazin-2-one], in series [1], the “Cytotoxic at 30 μM” value is recorded as “No”. Also, on mGFP-K-RASG12V, the IC50 is 7.7 µM and the Emax was 0.81 ± 0.02. Besides, the “fold potency loss compared to 12e” value on mGFP-K-RASG12V (versus 12e) came out at 6 fold.

As for `COc1ccc([C@@H](C)N(CC=C(c2ccccc2)c2ccccc2)CCN2CCCCC2)cc1` [NY329, (R)-N-(1-(4-methoxyphenyl)ethyl)-3,3-diphenyl-N-(2-(piperidin-1-yl)ethyl)prop-2-en-1-amine], the “Cytotoxic at 30 μM” value in series [1] is “Yes”. Besides, at mGFP-K-RASG12V, the IC50 was found to be 0.6 µM and the Emax is 0.83 ± 0.02.

`COc1ccc([C@@H](C)N(CC=C(c2ccccc2)c2ccccc2)CCN2CCN(C(=O)OC(C)(C)C)CC2)cc1` [NY345, (R)-tert-butyl 4-(2-((3,3-diphenylallyl)(1-(4-methoxyphenyl)ethyl)amino)ethyl) piperazine-1-carboxylate]: the “Cytotoxic at 30 μM” value in series [1] was “No”. Further, on mGFP-K-RASG12V, the concentration for half-maximal inhibition (IC50) was determined as 0.329 µM and the Emax was found to be 0.819.

Turning to `COc1ccc([C@@H](C)N(C/C=C/c2ccccc2)CCN2CCN(C)CC2)cc1` [NY346, (R,E)-N-(1-(4-methoxyphenyl)ethyl)-N-(2-(4-methylpiperazin-1-yl)ethyl)-3-phenylprop-2-en-1-amine], the “Cytotoxic at 30 μM” value in series [1] was “No”. For the same compound, on mGFP-K-RASG12V, the “KRAS PM localization inhibition activity (in words)” value was “complete loss of in vitro activity”, the IC50 came out at 14.8 µM and the Emax was determined as 0.84 ± 0.01.

Consider `COc1ccc([C@@H](C)N(CC=C(c2ccccc2)c2ccccc2)CCN2CCNCC2)cc1` [NY347, (R)-N-(1-(4-methoxyphenyl)ethyl)-3,3-diphenyl-N-(2-(piperazin-1-yl)ethyl)prop-2-en-1-amine], for which the “Cytotoxic at 30 μM” value in series [1] is “Yes”; in series [1] (listed as 12e), “cytotoxicity”. Moreover, on mGFP-K-RASG12V, the concentration for half-maximal inhibition (IC50) came out at 1.3 µM. Besides, the Emax was determined as 0.86 ± 0.02 on mGFP-K-RASG12V and 0.90 at mGFP-K-RASG12V (listed as 12e).

On to `CCOC(CCCN(CC=C(c1ccccc1)c1ccccc1)[C@H](C)c1ccc(OC)cc1)OCC` [NY348, (R)-N-(3,3-diphenylallyl)-4,4-diethoxy-N-(1-(4-methoxyphenyl)ethyl)butan-1-amine], for which the “Cytotoxic at 30 μM” value in series [1] is “No”. Besides, on mGFP-K-RASG12V, the IC50 was determined as 5.47 µM and the Emax came out at 0.963.

As for `C=CCN(CCN1CCN(C)CC1)[C@H](C)c1ccc(OC)cc1` [NY349, (R)-N-(1-(4-methoxyphenyl)ethyl)-N-(2-(4-methylpiperazin-1-yl)ethyl)prop-2-en-1-amine], the “Cytotoxic at 30 μM” value in series [1] is “No”. In addition, at mGFP-K-RASG12V, the “KRAS PM localization inhibition activity (in words)” value is “complete loss of in vitro activity”, the IC50 was 59.3 µM and the Emax is 0.76 ± 0.02.

In the case of `COc1ccc([C@@H](C)N(CC=C(c2ccccc2)c2ccccc2)CCN2CCN(C(C)=O)CC2)cc1` [NY350, (R)-1-(4-(2-((3,3-diphenylallyl)(1-(4-methoxyphenyl)ethyl)amino)ethyl)piperazin-1-yl)ethanone], in series [1], the “Cytotoxic at 30 μM” value is reported as “No”. Moreover, the Emax on mGFP-K-RASG12V is given as 0.877.

On to `COc1ccc([C@@H](C)N(CC=C(c2ccccc2)c2ccccc2)CCN2CCN(S(C)(=O)=O)CC2)cc1` [NY351, (R)-N-(1-(4-methoxyphenyl)ethyl)-N-(2-(4-(methylsulfonyl)piperazin-1-yl)ethyl)-3,3-diphenylprop-2-en-1-amine], for which the “Cytotoxic at 30 μM” value in series [1] is listed as “No”. Moreover, on mGFP-K-RASG12V, the IC50 turned out to be 1.11 µM and the Emax is listed as 0.851.

Regarding `COc1ccc([C@@H](C)N(CC=C(c2ccccc2)c2ccccc2)CCN2CCN(C(=O)Nc3ccccc3)CC2)cc1` [NY352, (R)-4-(2-((3,3-diphenylallyl)(1-(4-methoxyphenyl)ethyl)amino)ethyl)-N-phenylpiperazine-1-carboxamide], the “Cytotoxic at 30 μM” value in series [1] was “Yes”. Moreover, on mGFP-K-RASG12V, the IC50 came to 1.68 µM and the Emax is reported as 0.920.

As for `COc1ccc([C@@H](C)N(CC=C(c2ccccc2)c2ccccc2)CCN2CCN(C(=O)Oc3ccccc3)CC2)cc1` [NY353, (R)-phenyl 4-(2-((3,3-diphenylallyl)(1-(4-methoxyphenyl)ethyl)amino)ethyl) piperazine-1-carboxylate], the “Cytotoxic at 30 μM” value in series [1] is recorded as “No”. For the same compound, at mGFP-K-RASG12V, the IC50 was 3.26 µM and the Emax came to 0.920.

For the compound `C#CCN1CCN(CCN(CC=C(c2ccccc2)c2ccccc2)[C@H](C)c2ccc(OC)cc2)CC1` [NY356, (R)-N-(1-(4-methoxyphenyl)ethyl)-3,3-diphenyl-N-(2-(4-(prop-2-ynyl)piperazin-1-yl)ethyl)prop-2-en-1-amine], the “Cytotoxic at 30 μM” value in series [1] is on record as “No”. In addition, at mGFP-K-RASG12V, the IC50 amounted to 4.19 µM and the Emax is reported as 0.886.

`C=CC(=O)N1CCN(CCN(CC=C(c2ccccc2)c2ccccc2)[C@H](C)c2ccc(OC)cc2)CC1` [NY0357a, (R)-1-(4-(2-((3,3-diphenylallyl)(1-(4-methoxyphenyl)ethyl)amino)ethyl)piperazin-1-yl)prop-2-en-1-one]: the “Cytotoxic at 30 μM” value in series [1] is reported as “Yes”. Moreover, at mGFP-K-RASG12V, the IC50 amounted to 2.55 µM and the Emax was 0.697.

With `CCN(CC)CCN(CC=C(c1ccccc1)c1ccccc1)[C@H](C)c1ccc(OC)cc1` [NY0358, (R)-N^1-(3,3-diphenylallyl)-N^2,N^2-diethyl-N^1-(1-(4-methoxyphenyl)ethyl)ethane-1,2-diamine], the “Cytotoxic at 30 μM” value in series [1] is reported as “Yes”. For the same compound, on mGFP-K-RASG12V, the half-maximal inhibitory concentration (IC50) was 1.15 µM and 1.2 µM; the Emax worked out at 0.887. For the same compound, the Emax on mGFP-K-RASG12V (listed as 12b) is listed as 0.89 ± 0.01.

With `COc1ccccc1[C@@H](C)N(CC=C(c1ccccc1)c1ccccc1)CCN1CCN(C)CC1` [NY0366, (R)-N-(1-(2-methoxyphenyl)ethyl)-N-(2-(4-methylpiperazin-1-yl)ethyl)-3,3-diphenylprop-2-en-1-amine], the “Cytotoxic at 30 μM” value in series [1] is given as “Yes”. Further, on mGFP-K-RASG12V (listed as 15b), the IC50 turned out to be 3.8 µM and the Emax is listed as 0.86 ± 0.01. Further, on mGFP-K-RASG12V, the IC50 came out at 3.81 µM and the Emax is 0.861.

With `CN1CCN(CCN(CC=C(c2ccccc2)c2ccccc2)[C@@H]2CCc3ccccc32)CC1` [NY0369b, (R)-N-(3,3-diphenylallyl)-N-(2-(4-methylpiperazin-1-yl)ethyl)-2,3-dihydro-1H-inden-1-amine], the “Cytotoxic at 30 μM” value in series [1] is listed as “Yes”. Moreover, on mGFP-K-RASG12V, the IC50 stood at 90.1 µM and the Emax was 0.866.

Take `C[C@H](c1cccc(Cl)c1)N(CC=C(c1ccccc1)c1ccccc1)CCN1CCN(C)CC1` [NY0370b, (R)-N-(1-(3-chlorophenyl)ethyl)-N-(2-(4-methylpiperazin-1-yl)ethyl)-3,3-diphenylprop-2-en-1-amine]: the “Cytotoxic at 30 μM” value in series [1] is given as “Yes”. Also, at mGFP-K-RASG12V, the IC50 was 11.2 µM and the Emax is 0.767. Also, the Emax at mGFP-K-RASG12V (listed as 15g) is 0.77 ± 0.07.

Take `COc1ccc([C@@H](C)N(CC=C(c2ccccc2)c2ccccc2)CCN2CCN(CC(C)C)CC2)cc1` [NY0372, (R)-N-(2-(4-isobutylpiperazin-1-yl)ethyl)-N-(1-(4-methoxyphenyl)ethyl)-3,3-diphenylprop-2-en-1-amine]: the “Cytotoxic at 30 μM” value in series [1] is “No”. For the same compound, on mGFP-K-RASG12V, the IC50 worked out at 16.4 µM and the Emax amounted to 0.868.
